Test results published in the OligoGym collection.
Several values for one entry are separate records, joined by “and”; a condition that tells them apart may be missing. Identical values can stand only once. After the bases stand the sugars from the 5' end (letter, count) and the backbone: PS all phosphorothioate, else s phosphorothioate and o phosphodiester by linkage. Methylation of C is not given here. e = 2'-O-(2-methoxyethyl) (MOE); d = 2'-deoxy (DNA)

Target: DGAT2
Conditions: ASO

| Sequence | target mRNA inhibition (HepG2, 2.5 µM) | target mRNA inhibition (HepG2, 10 µM) | target mRNA inhibition (HepG2, 0.12 µM) | target mRNA inhibition (HepG2, 20 µM) |
| --- | --- | --- | --- | --- |
| GCACCAAGGAATGGTGTGTT (sugars e5 d10 e5, PS) | 16% | 38% |  |  |
| GCACCATAATCTGCACAGGT (sugars e5 d10 e5, PS) | 88% and 86% | 93% and 89% and 92% |  |  |
| GCACCTTGTATTAAATACTC (sugars e5 d10 e5, PS) | 75% | 91% |  |  |
| GCAGCAGGTACTCATGTTTG (sugars e5 d10 e5, PS) | 54% | 75% |  |  |
| GCAGCCTGGACAAGTCCTGC (sugars e2 d13 e5, PS) |  |  | 77% |  |
| GCAGGACCCCGGAGTAGGCG (sugars e3 d14 e3, PS) |  |  | 70% |  |
| GCAGGCCTCGGGAAGCACCT (sugars e5 d10 e5, PS) | 69% and 67% | 93% and 87% |  |  |
| GCAGGTTCATCTGCCTTGAC (sugars e5 d10 e5, PS) | 80% and 65% | 81% and 85% |  |  |
| GCCAACAAGTGGGAAATGCA (sugars e5 d10 e5, PS) | 51% | 80% |  |  |
| GCCAAGGACAGAGGTTCAAC (sugars e5 d10 e5, PS) | 61% | 90% |  |  |
| GCCAATGCCTAGGTCACAGT (sugars e5 d10 e5, PS) | 87% and 93% | 84% and 90% |  |  |
| GCCAGGTAAGGCCGTATGCC (sugars e5 d10 e5, PS) |  |  | 68% |  |
| GCCAGTTTCACAAAGCCCTT (sugars e5 d10 e5, PS) |  |  | 34% |  |
| GCCCAGCACCAAGGAATGGT (sugars e5 d10 e5, PS) | 0% | 59% |  |  |
| GCCCAGTTTCGGACCCACTG (sugars e2 d13 e5, PS) |  |  | 82% |  |
| GCCCTCCTCGAAGATCACCT (sugars e5 d10 e5, PS) | 37% | 76% |  |  |
| GCCTCGGTGTCCTCTCCTGT (sugars e5 d10 e5, PS) | 59% | 83% |  |  |
| GCCTGGACAAGTCCTGCCCA (sugars e2 d13 e5, PS) | 44% and 45% | 87% | 78% | 55% |
| GCCTGGACAAGTCCTGCCCA (sugars e3 d14 e3, PS) | 45% and 42% | 89% | 84% | 48% |

| Sequence | target mRNA inhibition (HepG2, 2.5 µM) | target mRNA inhibition (HepG2, 10 µM) | target mRNA inhibition (HepG2, 0.12 µM) | target mRNA inhibition (HepG2, 20 µM) |
| --- | --- | --- | --- | --- |
| GCCTGGGAACTTCTTGCTCA (sugars e5 d10 e5, PS) |  |  | 47% |  |
| GCCTTGGGAAGTCTCTCATA (sugars e5 d10 e5, PS) | 0% | 58% |  |  |
| GCTAAGCTTATTAGGTGTCT (sugars e5 d10 e5, PS) | 75% and 73% | 85% and 83% |  |  |
| GCTAGGACACCTGGAGCTGC (sugars e5 d10 e5, PS) |  | 95% and 80% and 96% |  |  |
| GCTCAGAGACTCAGCCGCAC (sugars e5 d10 e5, PS) | 41% | 60% | 86% | 47% |
| GCTGAGTCTGTGCTGCA (sugars e3 d10 e4, PS) | 56% | 85% |  |  |
| GCTTCCTCCCACTTCAGTTT (sugars e5 d10 e5, PS) | 55% | 83% |  |  |
| GCTTGTACACTTCATTCTCT (sugars e5 d10 e5, PS) | 42% | 85% |  |  |
| GCTTGTCGAAGAGCTTCACC (sugars e5 d10 e5, PS) | 25% | 78% |  |  |
| GGAACTTCTTCTGGACCCAT (sugars e5 d10 e5, PS) |  |  | 36% |  |
| GGACCCCGGAGTAGGCGGCT (sugars e5 d10 e5, PS) | 30% | 82% |  |  |
| GGAGCCCTCACAGGGCCAGG (sugars e5 d10 e5, PS) |  |  | 38% |  |
| GGAGCTCAGAGACTCAGCCG (sugars e3 d14 e3, PS) | 17% | 53% | 81% | 25% |
| GGAGTTTGTGTTTCCCATTT (sugars e5 d10 e5, PS) | 81% and 72% | 91% and 84% |  |  |
| GGATGTGTCATTTCCCCTGG (sugars e5 d10 e5, PS) | 66% | 96% |  |  |
| GGCACCAGCCCCCAGGTGTC (sugars e5 d10 e5, PS) |  |  | 30% |  |
| GGCATGCTTCCTCCCACTTC (sugars e5 d10 e5, PS) | 67% | 72% |  |  |
| GGCATGGAGCTCAGAGACTC (sugars e2 d13 e5, PS) |  |  | 77% |  |
